Experimental data reported in EP4631938A1, “NITROGEN-CONTAINING HETEROCYCLE WITH SEROTONIN RECEPTOR-BINDING ACTIVITY AND CARBOCYCLIC DERIVATIVE” (Shionogi & Co., Ltd, priority 2022, dated 2024).

Tests used:
[1] = biological target: T1, human recombinant 5-HT2A receptor (Homo sapiens, UniProt P28223); assay: Test Example 1-2: 5-HT2A receptor binding inhibition test ([3H]-Ketanserin; non-specific ligand Ketanserin); settings: [3H]-Ketanserin; non-specific binding with 500 µmol/L Ketanserin; room temperature (25°C), 1.5 hours; read-out: h 5-HT2A Ki
T1 construct: expressed in transfected cells; host or cells: Jump-In HEK cells (membrane preparation)
T1 sequence (P28223 whole entry): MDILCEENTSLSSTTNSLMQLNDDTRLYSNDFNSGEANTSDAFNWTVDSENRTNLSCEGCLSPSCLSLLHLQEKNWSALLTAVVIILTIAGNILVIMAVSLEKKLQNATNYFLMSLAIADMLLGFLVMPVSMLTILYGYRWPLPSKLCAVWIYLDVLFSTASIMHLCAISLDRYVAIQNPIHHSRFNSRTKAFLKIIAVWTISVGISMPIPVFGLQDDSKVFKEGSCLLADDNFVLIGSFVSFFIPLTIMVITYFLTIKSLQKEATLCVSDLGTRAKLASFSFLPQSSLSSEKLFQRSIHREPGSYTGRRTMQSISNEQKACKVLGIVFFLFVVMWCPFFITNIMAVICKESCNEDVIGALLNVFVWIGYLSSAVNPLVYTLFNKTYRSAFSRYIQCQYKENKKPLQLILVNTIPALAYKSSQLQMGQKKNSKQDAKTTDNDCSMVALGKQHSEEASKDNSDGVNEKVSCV
Experimental: The Kd value is calculated when the lot of the cell membrane is changed. 1 mmol/L non-specific binding calculating compound dissolved in DMSO or DMSO is previously dispensed to the microplate by 0.5 µL, and the cell membrane is diluted with an Assay buffer. The radioactive ligand solution is diluted step by step, and counts are checked with a liquid scintillator. The Assay buffer containing diluted cell membranes is dispensed by 50 µL/well into the microplate. The radioactive ligand solution is then dispensed by 50 µL/well into the microplate and the plate is sealed. The microplate is allowed to stand for 1.5 hours at room temperature (25°C). During this time, 50 mmol/L Tris-HCl (pH 7.4) is dispensed by 50 µL/well into the UniFilter plate and allowed to stand at 4°C for 1 hour or longer. Thereafter, filtration is performed with a Cell Harvester (PerkinElmer). The radioactive ligand solution is dispensed by 10 µL/well into empty wells of the UniFilter plate. After drying the UniFilter plate at room temperature, MicroScinti20 is dispensed by 50 µL/well into the UniFilter plate, and the plate is sealed. UniFilter plate is allowed to stand at room temperature overnight. The radioactivity of [^3H]-Ketanserin bound to the 5-HT2A receptor is measured using Microbeta2 (PerkinElmer) at a measurement time of 1 min/well. The Saturation curve is drawn from the measured value, and the Kd value is calculated from the slope of the Scatchard Plot.
A compound solution dissolved in DMSO is dispensed to a microplate by 0.5 µL, and a cell membrane and a hot ligand are each diluted with an Assay buffer. The Assay buffer containing diluted cell membrane is then dispensed by 50 µL/well into the microplate. The radioactive ligand solution is then dispensed by 50 µL/well into the microplate and the plate is sealed. Thereafter, the microplate is allowed to stand at room temperature (25°C) for 1.5 hours. During this time, 50 mmol/L Tris-HCl (pH 7.4) is dispensed by 50 µL/well into the UniFilter plate and allowed to stand at 4°C for 1 hour or longer. Thereafter, filtration is performed with a Cell Harvester (PerkinElmer). After drying the UniFilter plate at room temperature, MicroScinti20 is dispensed by 50 µL/well into the UniFilter plate, and the plate is sealed. UniFilter plate is allowed to stand at room temperature overnight. The radioactivity of [^3H]-Ketanserin bound to the 5-HT2A receptor is measured using Microbeta2 (PerkinElmer) at a measurement time of 1 min/well. Non-specific binding is calculated from the radioactivity of [^3H]-Ketanserin in the presence of 500 µmol/L Ketanserin of unlabeled ligand, and total binding is calculated from the radioactivity of [^3H]-Ketanserin in the absence of the compound of the present invention (Vehicle). Finally, the Ki value is calculated from the dose-response curve.
(§1) (The binding activity of the compound according to the present invention is calculated from the following binding inhibition rate (%).) Inhibition rate (%) = [1−(c−a)/(b−a)] × 100 [formula] • a; average cpm of non-specific binding • b; average cpm of total binding • c; cpm in the presence of the test compound
(§2) The compounds of the present invention were tested essentially as described above.

[2] = biological target: T2, human recombinant 5-HT2C receptor (Homo sapiens, UniProt P28335); assay: Test Example 2: 5-HT2C receptor binding inhibition test ([3H]-Mesulergine; non-specific ligand Serotonin HCl); settings: human serotonin 5-HT2C receptor binding activity
T2 construct: expressed in transfected cells; host or cells: Jump-In HEK cells (membrane preparation)
T2 sequence (P28335 33-458): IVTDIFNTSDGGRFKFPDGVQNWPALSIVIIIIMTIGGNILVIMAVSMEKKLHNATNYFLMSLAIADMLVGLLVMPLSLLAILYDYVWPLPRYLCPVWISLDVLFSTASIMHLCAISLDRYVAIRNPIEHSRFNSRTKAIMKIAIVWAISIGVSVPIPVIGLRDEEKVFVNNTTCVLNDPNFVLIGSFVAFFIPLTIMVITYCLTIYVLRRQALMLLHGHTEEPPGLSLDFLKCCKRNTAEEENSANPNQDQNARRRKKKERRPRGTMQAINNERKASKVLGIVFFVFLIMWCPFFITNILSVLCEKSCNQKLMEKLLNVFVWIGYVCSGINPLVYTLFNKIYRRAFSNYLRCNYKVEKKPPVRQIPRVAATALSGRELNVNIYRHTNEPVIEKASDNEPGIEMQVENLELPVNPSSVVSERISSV
Experimental: The Kd value is calculated when the lot of the cell membrane is changed. 1 mmol/L non-specific binding calculating compound dissolved in DMSO or DMSO is previously dispensed to the microplate by 0.5 µL, and the cell membrane is diluted with an Assay buffer. The radioactive ligand solution is diluted step by step, and counts are checked with a liquid scintillator. The Assay buffer containing diluted cell membranes is dispensed by 50 µL/well into the microplate. The radioactive ligand solution is then dispensed by 50 µL/well into the microplate and the plate is sealed. The microplate is allowed to stand at 37°C for 2 hours. During this time, 50 mmol/L Tris-HCl (pH 7.4) is dispensed by 50 µL/well into the GF/B UniFilter plate and allowed to stand at 4°C for 1 hour or longer. Thereafter, filtration is performed with a Cell Harvester (PerkinElmer). The radioactive ligand solution is dispensed by 10 µL/well into empty wells of the GF/B UniFilter plate. After drying the GF/B UniFilter plate at room temperature, MicroScinti20 is dispensed by 50 µL/well into the GF/B UniFilter plate, and the plate is sealed. GF/B UniFilter plate is allowed to stand at room temperature overnight. The radioactivity of [^3H]-Mesulergine bound to the 5-HT2C receptor is measured using Microbeta2 (PerkinElmer) at a measurement time of 1 min/well. The Saturation curve is drawn from the measured value, and the Kd value is calculated from the slope of the Scatchard Plot.
A compound solution dissolved in DMSO is dispensed to a microplate by 0.5 µL, and a cell membrane and a hot ligand are each diluted with an Assay buffer. The Assay buffer containing diluted cell membrane is then dispensed by 50 µL/well into the microplate. The radioactive ligand solution is then dispensed by 50 µL/well into the microplate and the plate is sealed. The microplate is then allowed to stand at 37°C for 2 hours. During this time, 50 mmol/L Tris-HCl (pH 7.4) is dispensed by 50 µL/well into the GF/B UniFilter plate and allowed to stand at 4°C for 1 hour or longer. Thereafter, filtration is performed with a Cell Harvester (PerkinElmer). After drying the GF/B UniFilter plate at room temperature, MicroScinti20 is dispensed by 50 µL/well into the GF/B UniFilter plate, and the plate is sealed. GF/B UniFilter plate is allowed to stand at room temperature overnight. The radioactivity of [^3H]-Mesulergine bound to the 5-HT2C receptor is measured using Microbeta2 (PerkinElmer) at a measurement time of 1 min/well. Non-specific binding is calculated from the radioactivity of [^3H]-Mesulergine in the presence of 500 µmol/L Serotonin HCl of unlabeled ligand, and total binding is calculated from the radioactivity of [^3H]-Mesulergine in the absence of the compound of the present invention (Vehicle). Finally, the Ki value is calculated from the dose-response curve.
as §1, §2

| Structure (SMILES) | Ki [1] | Ki [2] |
| --- | --- | --- |
| COCCc1nc(C)c(-c2cc(Nc3ncc(C(F)(F)F)cc3Cl)ncc2OCCO)c(C)n1 [Compound I-217] | 1.74 nM | 2.66 nM |
| COCC(F)(F)COc1nc(C)c(-c2cc(Nc3ncc(C(F)(F)F)cc3Cl)ncc2OCCO)c(C)n1 [Compound I-218] | 1.22 nM | 3.36 nM |
| Cc1nc(OCC2COC2)nc(C)c1-c1cc(Nc2ncc(C(F)(F)F)cc2Cl)ncc1OCCO [Compound I-219] | 1.25 nM | 6.28 nM |
| Cc1nc(OC2COC2)nc(C)c1-c1cc(Nc2ncc(C(F)(F)F)cc2Cl)ncc1OCCO [Compound I-220] | 1.39 nM | 5.91 nM |
| CCc1nc(C)c(-c2cc(Nc3ncc(C(F)(F)F)cc3Cl)ncc2OCCO)c(C)n1 [Compound I-221] | 0.996 nM | 2.23 nM |
| CCCc1nc(C)c(-c2cc(Nc3ncc(C(F)(F)F)cc3Cl)ncc2OCCO)c(C)n1 [Compound I-222] | 1.35 nM | 1.91 nM |
| Cc1nc(C(F)F)nc(C)c1-c1cc(Nc2ncc(C(F)(F)F)cc2Cl)ncc1OCCO [Compound I-223] | 0.877 nM | 9.21 nM |
| Cc1cc(C(F)(F)F)cnc1Nc1cc(-c2c(C)cnn2C)c(OCCO)cn1 [Compound I-226] | 0.268 nM | 1.91 nM |
| O=C1NCCc2c1cccc2-c1cc(Nc2ncc(C(F)(F)F)cc2F)ncc1OCCO [Compound I-227] | 1.21 nM | 26.7 nM |
| Cn1ncc(Cl)c1-c1cc(Nc2ccc(OC(C)(F)F)cn2)ncc1OCCO [Compound I-229] | 0.28 nM | 2.22 nM |
| COCc1nc(C)c(-c2cc(Nc3ncc(-c4ccc(F)cc4)cc3Cl)ncc2OCCO)c(C)n1 [Compound I-230] | 0.576 nM | 0.372 nM |
| COCc1nc(C)c(-c2cc(Nc3ncc(OC(F)F)cc3Cl)ncc2OCCO)c(C)n1 [Compound I-231] | 3.78 nM | 5.1 nM |
| COCc1nc(C)c(-c2cc(Nc3ncc(OCC(F)(F)F)cc3Cl)ncc2OCCO)c(C)n1 [Compound I-232] | 8.27 nM | 6.06 nM |
| COCc1nc(C)c(-c2cc(Nc3ncc(OCC(F)(F)C(F)(F)F)cc3Cl)ncc2OCCO)c(C)n1 [Compound I-233] | 4.42 nM | 1.76 nM |
| COCc1nc(C)c(-c2cc(Nc3ncc(-c4ccc(Cl)c(F)c4)cc3Cl)ncc2OCCO)c(C)n1 [Compound I-234] | 0.525 nM | 0.167 nM |
| COCc1nc(C)c(-c2cc(Nc3ncc(-c4ccc(Cl)cn4)cc3Cl)ncc2OCCO)c(C)n1 [Compound I-235] | 0.925 nM | 0.984 nM |
| COCc1nc(C)c(-c2cc(Nc3ncc(-n4cc(Cl)cn4)cc3Cl)ncc2OCCO)c(C)n1 [Compound I-236] | 1.24 nM | 0.727 nM |

| Structure (SMILES) | Ki [1] | Ki [2] |
| --- | --- | --- |
| COCc1nc(C)c(-c2cc(Nc3ncc(-c4cnn(C(F)F)c4)cc3Cl)ncc2OCCO)c(C)n1 [Compound I-237] | 7.43 nM | 7.37 nM |
| COCc1nc(C)c(-c2cc(Nc3ncc(OCCCC(F)(F)F)cc3Cl)ncc2OCCO)c(C)n1 [Compound I-238] | 5.12 nM | 2.64 nM |
| COCc1nc(C)c(-c2cc(Nc3ncc(-c4ncc(Cl)cn4)cc3Cl)ncc2OCCO)c(C)n1 [Compound I-239] | 2.3 nM | 1.35 nM |
| COCc1nc(C)c(-c2cc(Nc3ncc(-c4nc(C(F)(F)F)co4)cc3Cl)ncc2OCCO)c(C)n1 [Compound I-240] | 2.05 nM | 1.54 nM |
| COCc1nc(C)c(-c2cc(Nc3ncc(-c4ccc(C#N)cc4)cc3Cl)ncc2OCCO)c(C)n1 [Compound I-241] | 0.799 nM | 0.637 nM |
| COCc1nc(C)c(-c2cc(Nc3ncc(-c4ccc(C(F)F)cc4)cc3Cl)ncc2OCCO)c(C)n1 [Compound I-242] | 0.258 nM | 0.337 nM |
| COCc1nc(C)c(-c2cc(Nc3ncc(-c4cnn(C(F)(F)F)c4)cc3Cl)ncc2OCCO)c(C)n1 [Compound I-243] | 3.58 nM | 2.53 nM |
| COCc1nc(C)c(-c2cc(Nc3ncc(-c4ccc(C#N)nc4)cc3Cl)ncc2OCCO)c(C)n1 [Compound I-244] | 3.75 nM | 2.87 nM |
| COCc1nc(C)c(-c2cc(Nc3ncc(-c4cnc(C(F)(F)F)nc4)cc3Cl)ncc2OCCO)c(C)n1 [Compound I-245] | 5.85 nM | 1.41 nM |
| COCc1nc(C)c(-c2cc(Nc3ncc(-c4ccnc(C(F)(F)F)c4)cc3Cl)ncc2OCCO)c(C)n1 [Compound I-246] | 2.7 nM | 5.25 nM |
| COCc1nc(C)c(-c2cc(Nc3ccc(C(F)(F)F)c(C)n3)ncc2OCCO)c(C)n1 [Compound I-248] | 0.794 nM | 4.78 nM |
| COCc1nc(C)c(-c2cc(Nc3ncc(-c4ncc(F)cn4)cc3Cl)ncc2OCCO)c(C)n1 [Compound I-249] | 5.19 nM | 4.29 nM |
| COCc1nc(C)c(-c2cc(Nc3ncc(-c4ccc(F)cc4)cc3F)ncc2OCCO)c(C)n1 [Compound I-251] | 0.325 nM | 0.393 nM |
| COCc1nc(C)c(-c2cc(Nc3ncc(-c4ncc(F)cc4F)cc3Cl)ncc2OCCO)c(C)n1 [Compound I-252] | 3.95 nM | 3.17 nM |
| COCc1nc(C)c(-c2cc(Nc3ncc(-c4ncc(OC)cn4)cc3Cl)ncc2OCCO)c(C)n1 [Compound I-253] | 2.74 nM | 4.42 nM |
| COCc1nc(C)c(-c2cc(Nc3ncc(-c4ccc(F)c(F)c4)cc3Cl)ncc2OCCO)c(C)n1 [Compound I-254] | 0.496 nM | 0.278 nM |
